The target in this assay is T1, human HAQ STING isoform (hSTING HAQ) (Homo sapiens, UniProt Q86WV6, G230A/H232R/R293Q/R71H).
T1 construct: THP1 cells express the naturally occurring human HAQ STING isoform (hSTING HAQ); host or cells: THP1
T1 sequence (Q86WV6 whole entry R71H/G230A/H232R/R293Q, canonical isoform): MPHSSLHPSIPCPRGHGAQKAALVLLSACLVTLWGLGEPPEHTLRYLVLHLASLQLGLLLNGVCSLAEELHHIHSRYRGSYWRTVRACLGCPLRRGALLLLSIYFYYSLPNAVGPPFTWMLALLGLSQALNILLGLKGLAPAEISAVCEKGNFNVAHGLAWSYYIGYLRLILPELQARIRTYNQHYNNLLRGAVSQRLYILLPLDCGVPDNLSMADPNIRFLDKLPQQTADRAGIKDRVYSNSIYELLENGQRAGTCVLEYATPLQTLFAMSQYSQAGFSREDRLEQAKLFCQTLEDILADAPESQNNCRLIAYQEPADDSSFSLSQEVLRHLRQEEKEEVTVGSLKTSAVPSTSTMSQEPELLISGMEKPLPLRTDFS
The assay can be described thus: IFN-β mRNA level in THP1 cells (qPCR, STING agonist cellular activity). The format is cell-based. The settings on record: compound at 3.6 μM, 2 hrs, IFNβ expression normalized against GAPDH by the 2^-ΔΔCT method, DMSO = 1.0. An outline of the steps: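 THP1 cells were seeded at 9×10^5 per well, incubated overnight, then treated with compound at 3.6 μM final (0.1% DMSO control) for 2 hrs at 37 °C. IFN-β mRNA was measured by SYBR Green qPCR, normalised to GAPDH by the 2^−ΔΔCT method, in triplicate.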
Background: Real-time PCR tracks product formation cycle by cycle.
For the compound `COc1cc(CN(Cc2cn3c4c(c(N5CCCCC5=O)c(F)cc4c2=O)OCC3C)[C@H]2CCCN(c3ccc(N)nc3)C2)ccn1` (stereo partly drawn) [Compound 60, 6-((((S)-1-(6-aminopyridin-3-yl)piperidin-3-yl)((2-methoxypyridin-4-yl)methyl)amino)methyl)-9-fluoro-3-methyl-10-(2-oxopiperidin-1-yl)-2H-[1,4]oxazino[2,3,4-ij]quinolin-7(3H)-one], the “Relative mRNA INFβ/GAPDH THP 1” value was 174.3.

Take `COc1cc(CN(Cc2cn3c4c(c(N5CCCCC5=O)c(F)cc4c2=O)OCC3C)[C@H]2CCCN(c3ccc(N)nc3)C2)ccn1` (stereo partly drawn) [Compound 61, 6-((((S)-1-(6-aminopyridin-3-yl)piperidin-3-yl)((2-methoxypyridin-4-yl)methyl)amino)methyl)-9-fluoro-3-methyl-10-(2-oxopiperidin-1-yl)-2H-[1,4]oxazino[2,3,4-ij]quinolin-7(3H)-one]: the “Relative mRNA INFβ/GAPDH THP 1” value was determined as 0.7.

With `COc1cc(CN(Cc2cn3c4c(c(OCc5ccccc5)c(F)cc4c2=O)OCC3C)[C@H]2CCCN(c3ccc(N)nc3)C2)ccn1` (stereo partly drawn) [Compound 62, 6-((((S)-1-(6-aminopyridin-3-yl)piperidin-3-yl)((2-methoxypyridin-4-yl)methyl)amino)methyl)-10-(benzyloxy)-9-fluoro-3-methyl-2H-[1,4]oxazino[2,3,4-ij]quinolin-7(3H)-one], the “Relative mRNA INFβ/GAPDH THP 1” value came out at 915.2.

Turning to `COc1cc(CN(Cc2cn3c4c(c(O)c(F)cc4c2=O)OCC3C)[C@H]2CCCN(c3ccc(N)nc3)C2)ccn1` (stereo partly drawn) [Compound 63, 6-((((S)-1-(6-aminopyridin-3-yl)piperidin-3-yl)((2-methoxypyridin-4-yl)methyl)amino)methyl)-9-fluoro-10-hydroxy-3-methyl-2H-[1,4]oxazino[2,3,4-ij]quinolin-7(3H)-one], the “Relative mRNA INFβ/GAPDH THP 1” value came to 2.5.

For the compound `COc1cc(CN(Cc2cn3c4c(c(-c5ccc(CCO)cn5)c(F)cc4c2=O)OCC3C)[C@H]2CCCN(c3ccc(N)nc3)C2)ccn1` (stereo partly drawn) [Compound 64, 6-((((S)-1-(6-aminopyridin-3-yl)piperidin-3-yl)((2-methoxypyridin-4-yl)methyl)amino)methyl)-9-fluoro-10-(5-(2-hydroxyethyl)pyridin-2-yl)-3-methyl-2H-[1,4]oxazino[2,3,4-ij]quinolin-7(3H)-one], the “Relative mRNA INFβ/GAPDH THP 1” value came to 26.6.

With `COc1cc(CN(Cc2cn3c4c(c(F)c(F)cc4c2=O)OCC3)[C@H]2CCCN(c3ccc([N+](=O)[O-])nc3)C2)ccn1` [Compound 65, (S)-9,10-difluoro-6-((((2-methoxypyridin-4-yl)methyl)(1-(6-nitropyridin-3-yl)piperidin-3-yl)amino)methyl)-2,3-dihydro-7H-[1,4]oxazino[2,3,4-ij]quinolin-7-one], the “Relative mRNA INFβ/GAPDH THP 1” value stood at 7.4.

As to `Nc1ccc(N2CCC[C@H](N(Cc3ccncc3)Cc3cn4c5c(c(F)c(F)cc5c3=O)OCC4)C2)cn1` [Compound 70, (S)-6-(((1-(6-aminopyridin-3-yl)piperidin-3-yl)(pyridin-4-ylmethyl)amino)methyl)-9,10-difluoro-2,3-dihydro-7H-[1,4]oxazino[2,3,4-ij]quinolin-7-one], the “Relative mRNA INFβ/GAPDH THP 1” value is 6236.9.

On to `Cc1cc(CN(Cc2cn3c4c(c(F)c(F)cc4c2=O)OCC3)[C@H]2CCCN(c3ccc(N)nc3)C2)ccn1` [Compound 71, (S)-6-(((1-(6-aminopyridin-3-yl)piperidin-3-yl)((2-methylpyridin-4-yl)methyl)amino)methyl)-9,10-difluoro-2,3-dihydro-7H-[1,4]oxazino[2,3,4-ij]quinolin-7-one], for which the “Relative mRNA INFβ/GAPDH THP 1” value is recorded as 6763.7.

Turning to `Nc1ccc(N2CCC[C@H](N(Cc3ccccc3)Cc3cn4c5c(c(F)c(F)cc5c3=O)OCC4)C2)cn1` [Compound 72, (S)-6-(((1-(6-aminopyridin-3-yl)piperidin-3-yl)(benzyl)amino)methyl)-9,10-difluoro-2,3-dihydro-7H-[1,4]oxazino[2,3,4-ij]quinolin-7-one], the “Relative mRNA INFβ/GAPDH THP 1” value is 31.9.

Consider `COc1ccc(CN(Cc2cn3c4c(c(F)c(F)cc4c2=O)OCC3)[C@H]2CCCN(c3ccc(N)nc3)C2)c(OC)c1` [Compound 73, (S)-6-(((1-(6-aminopyridin-3-yl)piperidin-3-yl)(2,4-dimethoxybenzyl)amino)methyl)-9,10-difluoro-2,3-dihydro-7H-[1,4]oxazino[2,3,4-ij]quinolin-7-one], for which the “Relative mRNA INFβ/GAPDH THP 1” value amounted to 7.9.

Regarding `Nc1ccc(N2CCC[C@H](N(Cc3ccc(C(F)(F)F)cc3F)Cc3cn4c5c(c(F)c(F)cc5c3=O)OCC4)C2)cn1` [Compound 74, (S)-6-(((1-(6-aminopyridin-3-yl)piperidin-3-yl)(2-fluoro-4-(trifluoromethyl)benzyl)amino)methyl)-9,10-difluoro-2,3-dihydro-7H-[1,4]oxazino[2,3,4-ij]quinolin-7-one], the “Relative mRNA INFβ/GAPDH THP 1” value is on record as 1.4.

As to `Nc1ccc(N2CCC[C@H](N(Cc3ccccn3)Cc3cn4c5c(c(F)c(F)cc5c3=O)OCC4)C2)cn1` [Compound 75, (S)-6-(((1-(6-aminopyridin-3-yl)piperidin-3-yl)(pyridin-2-ylmethyl)amino)methyl)-9,10-difluoro-2,3-dihydro-7H-[1,4]oxazino[2,3,4-ij]quinolin-7-one], the “Relative mRNA INFβ/GAPDH THP 1” value was 1.1.

Turning to `Nc1ccc(N2CCC[C@H](N(Cc3ccc(Cl)nc3)Cc3cn4c5c(c(F)c(F)cc5c3=O)OCC4)C2)cn1` [Compound 76, (S)-6-(((1-(6-aminopyridin-3-yl)piperidin-3-yl)((6-chloropyridin-3-yl)methyl)amino)methyl)-9,10-difluoro-2,3-dihydro-7H-[1,4]oxazino[2,3,4-ij]quinolin-7-one], the “Relative mRNA INFβ/GAPDH THP 1” value worked out at 0.8.

In the case of `Nc1ccc(N2CCC[C@H](N(Cc3ccccc3F)Cc3cn4c5c(c(F)c(F)cc5c3=O)OCC4)C2)cn1` [Compound 77, (S)-6-(((1-(6-aminopyridin-3-yl)piperidin-3-yl)(2-fluorobenzyl)amino)methyl)-9,10-difluoro-2,3-dihydro-7H-[1,4]oxazino[2,3,4-ij]quinolin-7-one], the “Relative mRNA INFβ/GAPDH THP 1” value amounted to 1.3.

For the compound `Cc1cc(CN(Cc2cn3c4c(c(F)c(F)cc4c2=O)OCC3)[C@H]2CCCN(c3ccc(N)nc3)C2)cc(C)c1F` [Compound 78, (S)-6-(((1-(6-aminopyridin-3-yl)piperidin-3-yl)(4-fluoro-3,5-dimethylbenzyl)amino)methyl)-9,10-difluoro-2,3-dihydro-7H-[1,4]oxazino[2,3,4-ij]quinolin-7-one], the “Relative mRNA INFβ/GAPDH THP 1” value stood at 1.2.

Regarding `Nc1ccc(N2CCC[C@H](N(Cc3ccncc3Cl)Cc3cn4c5c(c(F)c(F)cc5c3=O)OCC4)C2)cn1` [Compound 79, (S)-6-(((1-(6-aminopyridin-3-yl)piperidin-3-yl)((3-chloropyridin-4-yl)methyl)amino)methyl)-9,10-difluoro-2,3-dihydro-7H-[1,4]oxazino[2,3,4-ij]quinolin-7-one], the “Relative mRNA INFβ/GAPDH THP 1” value worked out at 335.5.

For `COc1cc(CN(Cc2cn3c4c(c(F)c(F)cc4c2=O)OCC3)[C@H]2CCCN(c3ccc(C)nc3)C2)ccn1` [Compound 80, (S)-9,10-difluoro-6-((((2-methoxypyridin-4-yl)methyl)(1-(6-methylpyridin-3-yl)piperidin-3-yl)amino)methyl)-2,3-dihydro-7H-[1,4]oxazino[2,3,4-ij]quinolin-7-one], the “Relative mRNA INFβ/GAPDH THP 1” value is given as 6820.3.

Regarding `Cc1cc(CN(Cc2cn3c4c(c(F)c(F)cc4c2=O)OCC3)[C@H]2CCCN(c3cccnc3)C2)ccn1` [Compound 81, (S)-9,10-difluoro-6-((((2-methylpyridin-4-yl)methyl)(1-(pyridin-3-yl)piperidin-3-yl)amino)methyl)-2,3-dihydro-7H-[1,4]oxazino[2,3,4-ij]quinolin-7-one], the “Relative mRNA INFβ/GAPDH THP 1” value is 5719.5.

On to `Cc1cc(CN(Cc2cn3c4c(c(F)c(F)cc4c2=O)OCC3)[C@H]2CCCN(c3cnccn3)C2)ccn1` [Compound 83, (S)-9,10-difluoro-6-((((2-methylpyridin-4-yl)methyl)(1-(pyrazin-2-yl)piperidin-3-yl)amino)methyl)-2,3-dihydro-7H-[1,4]oxazino[2,3,4-ij]quinolin-7-one], for which the “Relative mRNA INFβ/GAPDH THP 1” value came out at 1.2.

For `COc1cc(CN(Cc2cn3c4c(c(F)c(F)cc4c2=O)OCC3)[C@H]2CCCN(c3cnccn3)C2)ccn1` [Compound 84, (S)-9,10-difluoro-6-((((2-methoxypyridin-4-yl)methyl)(1-(pyrazin-2-yl)piperidin-3-yl)amino)methyl)-2,3-dihydro-7H-[1,4]oxazino[2,3,4-ij]quinolin-7-one], the “Relative mRNA INFβ/GAPDH THP 1” value amounted to 0.9.

`O=c1c(CN(Cc2ccncn2)[C@H]2CCCN(c3cnccn3)C2)cn2c3c(c(F)c(F)cc13)OCC2` [Compound 85, (S)-9,10-difluoro-6-(((1-(pyrazin-2-yl)piperidin-3-yl)(pyrimidin-4-ylmethyl)amino)methyl)-2,3-dihydro-7H-[1,4]oxazino[2,3,4-ij]quinolin-7-one]: the “Relative mRNA INFβ/GAPDH THP 1” value stood at 0.9.

For the compound `COc1cnccc1CN(Cc1cn2c3c(c(F)c(F)cc3c1=O)OCC2)[C@H]1CCCN(c2cnccn2)C1` [Compound 86, (S)-9,10-difluoro-6-((((3-methoxypyridin-4-yl)methyl)(1-(pyrazin-2-yl)piperidin-3-yl)amino)methyl)-2,3-dihydro-7H-[1,4]oxazino[2,3,4-ij]quinolin-7-one], the “Relative mRNA INFβ/GAPDH THP 1” value was found to be 1.1.

Take `O=c1c(CN(Cc2ccncc2F)[C@H]2CCCN(c3cnccn3)C2)cn2c3c(c(F)c(F)cc13)OCC2` [Compound 87, (S)-9,10-difluoro-6-((((3-fluoropyridin-4-yl)methyl)(1-(pyrazin-2-yl)piperidin-3-yl)amino)methyl)-2,3-dihydro-7H-[1,4]oxazino[2,3,4-ij]quinolin-7-one]: the “Relative mRNA INFβ/GAPDH THP 1” value is listed as 1.2.

These data come from US20250171461A1, “STIMULATOR OF INTERFERON GENES (STING) MODULATORS, AND COMPOSITIONS AND METHODS THEREOF” (Geode Therapeutics Inc., priority 2022, published 2025).
